{"source": "the Bradley open melting point set (2014)"}
{"units": {"melting point": "°C"}}
{"smiles": "N#CCCCCCCCCC#N", "note": "[sebaconitrile]", "melting point": 6}
{"smiles": "CCC(C)OC(C)=O", "note": "(centres undefined) [sec-butyl acetate]", "melting point": -99}
{"smiles": "CCC(C)C1(CC)C(=O)NC(=O)NC1=O", "note": "(centres undefined) [secbutabarbital]", "melting point": 166}
{"smiles": "OC[C@@H](O)[C@@H](O)[C@H](O)[C@@H](O)CO", "note": "[sorbitol]", "melting point": 111}
{"smiles": "NCCCNCCCCNCCCN", "note": "[spermine]", "melting point": 29}
{"smiles": "O=C(CCCN1CCC2(CC1)C(=O)NCN2c1ccccc1)c1ccc(F)cc1", "note": "[spiperone]", "melting point": 190}
{"smiles": "CC(C)CCCC(C)CCCC(C)CCCCC(C)CCCC(C)CCCC(C)C", "note": "(centres undefined) [squalane]", "melting point": -38}
{"smiles": "CC(C)=CCC/C(C)=C/CC/C(C)=C/CC/C=C(\\C)CC/C=C(\\C)CCC=C(C)C", "note": "[squalene]", "melting point": -75}
{"smiles": "C[C@]12CCC(=O)C[C@@H]1CC[C@@H]1[C@@H]2CC[C@]2(C)[C@@H](O)CC[C@@H]12", "note": "[stanolone]", "melting point": 181}
{"smiles": "Cc1ccnc(NS(=O)(=O)c2ccc(N)cc2)n1", "note": "[sulfamerazine (polymorph 1)]", "melting point": 235}
{"smiles": "Cc1ccnc(NS(=O)(=O)c2ccc(N)cc2)n1", "note": "[sulfamerazine]", "melting point": 235}
{"smiles": "Cc1cc(C)nc(NS(=O)(=O)c2ccc(N)cc2)n1", "note": "[sulfamethazine] [listing 1 of 2 here]", "melting point": 200}
{"smiles": "Cc1cc(C)nc(NS(=O)(=O)c2ccc(N)cc2)n1", "note": "[sulfamethazine] [listing 2 of 2 here]", "melting point": 200}
{"smiles": "COc1ccc(NS(=O)(=O)c2ccc(N)cc2)nn1", "note": "[sulfamethoxypyridazine]", "melting point": 182}
{"smiles": "Nc1ccc(S(=O)(=O)Nc2nccs2)cc1", "note": "[sulfathiazole] [listing 1 of 2 here]", "melting point": 202}
{"smiles": "Nc1ccc(S(=O)(=O)Nc2nccs2)cc1", "note": "[sulfathiazole] [listing 2 of 2 here]", "melting point": 202}
{"smiles": "Cc1cc(NS(=O)(=O)c2ccc(N)cc2)nc(C)n1", "note": "[sulfisomidine]", "melting point": 243}
{"smiles": "CS(=O)c1ccc(cc1)/C=C3c2ccc(F)cc2C(CC(=O)O)=C3C", "note": "(centres undefined) [sulindac]", "melting point": 185}
{"smiles": "CC1=C(CC(=O)O)c2cc(F)ccc2/C1=C\\c1ccc(S(C)=O)cc1", "note": "(centres undefined) [sulindac]", "melting point": 184}
{"smiles": "CCN1CCCC1CNC(=O)c1cc(S(N)(=O)=O)ccc1OC", "note": "(centres undefined) [sulpiride]", "melting point": 179}
{"smiles": "CC(C)(C)OOC(=O)c1ccccc1", "note": "[tert-Butyl benzenecarboperoxoate]", "melting point": 8}
{"smiles": "CC(C)(C)Cl", "note": "[tert-butyl chloride]", "melting point": -26}
{"smiles": "CC(C)(C)c1ccccc1", "note": "[tert-butylbenzene]", "melting point": -58}
{"smiles": "O=C5\\C=C4/C(C3CCC2(C(CCC2OC(=O)Cc1ccccc1)C3CC4)C)(C)CC5", "note": "(centres undefined) [testosterone phenylacetate]", "melting point": 129}
{"smiles": "O=C5\\C=C3/[C@]([C@H]2CC[C@@]4([C@@H](OC(=O)CCc1ccccc1)CC[C@H]4[C@@H]2CC3)C)(C)CC5", "note": "[testosterone phenylpropionate]", "melting point": 116}
{"smiles": "C[C@]12CC[C@H]3[C@@H](CCC4=CC(=O)CC[C@@]43C)[C@@H]1CC[C@@H]2O", "note": "[testosterone]", "melting point": 154}
{"smiles": "ClC(Cl)=C(Cl)Cl", "note": "[tetrachloroethylene]", "melting point": -22}
{"smiles": "ClC(Cl)(Cl)Cl", "note": "[tetrachloromethane]", "melting point": -23}
{"smiles": "O=C1OC(=O)c2c(Cl)c(Cl)c(Cl)c(Cl)c21", "note": "[tetrachlorophthalic anhydride]", "melting point": 256}
{"smiles": "CCCCCCCCCCCCCC=O", "note": "[tetradecyl_aldehyde]", "melting point": 24}
{"smiles": "CCO[Si](OCC)(OCC)OCC", "note": "[tetraethoxysilane]", "melting point": -85}
{"smiles": "CC[Si](CC)(CC)CC", "note": "[tetraethylsilane]", "melting point": -82}
{"smiles": "O=C(O)c1c(F)c(F)c(F)c(F)c1C(=O)O", "note": "[tetrafluorophthalic acid]", "melting point": 156}
{"smiles": "O=C1CCSCC1", "note": "[tetrahydro-4h-thiopyran-4-one]", "melting point": 62}
{"smiles": "C1CCOC1", "note": "[tetrahydrofuran]", "melting point": -108}
{"smiles": "CN(C)C(=S)SSC(=S)N(C)C", "note": "[tetramethylthiuram disulfide]", "melting point": 150}
{"smiles": "C=CCC1(C2C=CCCC2)C(=O)NC(=S)NC1=O", "note": "(centres undefined) [thialbarbital]", "melting point": 148}
{"smiles": "OB(O)c1cccc2c1Sc1ccccc1S2", "note": "[thianthrene-1-boronic acid]", "melting point": 147}
{"smiles": "OB(O)c1cccs1", "note": "[thiophene-2-boronic acid]", "melting point": 130}
